Paper PMC6111308, “Antimycobacterial, Enzyme Inhibition, and Molecular Interaction Studies of Psoromic Acid in Mycobacterium tuberculosis: Efficacy and Safety Investigations” (Journal of Clinical Medicine, 2018)
pIC50: −log10 of the molar value.

Biological target: T1, arylamine-N-acetyltransferase (TBNAT) (Mycobacterium tuberculosis, UniProt P9WJI5)
T1 construct: gene nat
T1 sequence (P9WJI5 1-283): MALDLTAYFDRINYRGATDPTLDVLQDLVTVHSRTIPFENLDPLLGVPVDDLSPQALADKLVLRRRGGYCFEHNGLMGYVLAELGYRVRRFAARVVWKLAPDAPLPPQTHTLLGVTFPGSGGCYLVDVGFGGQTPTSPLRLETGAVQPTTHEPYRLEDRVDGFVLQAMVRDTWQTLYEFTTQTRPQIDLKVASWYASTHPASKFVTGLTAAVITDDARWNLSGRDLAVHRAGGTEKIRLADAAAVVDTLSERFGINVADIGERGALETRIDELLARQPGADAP
Assay: biochemical

SMILES | pIC50
NNC(=O)c1ccncc1 [INH, isoniazid] | 5.21
COc1cc(C(=O)O)c2c(c1C)OC(=O)c1c(C)cc(O)c(C=O)c1O2 [PA, psoromic acid] | 5.06
